Activity calls are given as the source filed them. No cut-off for these calls is given here.
Experiments:
Human respirovirus 3 = assay: Antiviral activity against Parainfluenza virus type 3 infected in african green monkey Vero cells; type: functional, organism-based
[1] = system: Mammalian orthoreovirus 1; assay: Antiviral activity against Reovirus 1 infected in african green monkey Vero cells; type: functional, organism-based
Punta Toro virus = assay: Antiviral activity against Punta Toro virus infected in african green monkey Vero cells; type: functional, organism-based
Influenza A virus [2] = assay: Antiviral activity against Influenza virus type A H3N2 infected in MDCK cells; type: functional, organism-based
Human alphaherpesvirus 2 = assay: Antiviral activity against Herpes simplex virus type 2 infected in HEL cells; type: functional, organism-based
[3] = system: Vesicular stomatitis virus; assay: Antiviral activity against Vesicular stomatitis virus infected in HEL cells; type: functional, organism-based
[4] = system: Vesicular stomatitis virus; assay: Antiviral activity against Vesicular stomatitis virus infected in human HeLa cells; type: functional, organism-based
[5] = Inhibition of HIV2 ROD reverse transcriptase after 30 mins; design: species or system Human immunodeficiency virus 2
Coxsackievirus B4 [6] = assay: Antiviral activity against Coxsackievirus B4 infected in human HeLa cells; type: functional, organism-based
[7] = system: Respiratory syncytial virus; assay: Antiviral activity against Respiratory syncytial virus infected in human HeLa cells; type: functional, organism-based
Human alphaherpesvirus 1 = assay: Antiviral activity against Herpes simplex virus type 1 infected in HEL cells; type: functional, organism-based
Sindbis virus = assay: Antiviral activity against Sindbis virus infected in african green monkey Vero cells; type: functional, organism-based
Vaccinia virus = assay: Antiviral activity against Vaccinia virus infected in HEL cells; type: functional, organism-based; conditions: Orthopoxvirus vaccinia
Feline coronavirus = assay: Antiviral activity against Feline coronavirus infected in crandel feline kidney cells; type: functional, organism-based
Coxsackievirus B4 [8] = assay: Antiviral activity against Coxsackievirus B4 infected in african green monkey Vero cells; type: functional, organism-based
Influenza B virus = assay: Antiviral activity against Influenza virus type B infected in MDCK cells; type: functional, organism-based
Influenza A virus [9] = assay: Antiviral activity against Influenza virus type A H1N1 infected in MDCK cells; type: functional, organism-based
[10] = target: Human immunodeficiency virus type 1 reverse transcriptase (Human immunodeficiency virus 1, UniProt Q72547); assay: Inhibition of HIV1 3B reverse transcriptase after 30 mins
[11] = system: Human immunodeficiency virus 1; assay: Antiviral activity against HIV1 3B infected in human CEM cells assessed as inhibition of virus-induced cytopathicity after 4 days; type: functional, organism-based; conditions: Human immunodeficiency virus 1, 3B, CCRF-CEM, 96 h
[12] = system: Human immunodeficiency virus 2; assay: Antiviral activity against HIV2 ROD infected in human CEM cells assessed as inhibition of virus-induced cytopathicity after 4 days; type: functional, organism-based; conditions: Human immunodeficiency virus 2, ROD, CCRF-CEM, 96 h
[13] = Selectivity index, ratio of CC50 for human CEM cells to EC50 for HIV1 3B; type: toxicity, cell-based, CCRF-CEM; conditions: read-out: Ratio CC50/EC50
CCRF-CEM = assay: Cytotoxicity against HIV-infected human CEM cells; type: cell-based; conditions: ccrf-cem

Row | Structure (SMILES) | Activity (Human respirovirus 3) | Activity [1] | Activity (Punta Toro virus) | Activity (Influenza A virus [2]) | Activity (Human alphaherpesvirus 2) | Activity [3] | Activity [4] | Activity (Coxsackievirus B4 [6]) | Activity [7] | Activity (Human alphaherpesvirus 1) | Activity (Sindbis virus) | Activity (Vaccinia virus) | Activity (Feline coronavirus) | Activity (Coxsackievirus B4 [8]) | Activity (Influenza B virus) | Activity (Influenza A virus [9]) | EC50 [11] | EC50 [12] | selectivity ratio [13] | CC50 (CCRF-CEM) | other results
1 | Cc1cc(C)nc(N2C(=O)CS[C@@H]2C23CC4CC(CC(C4)C2)C3)c1 | inactive | inactive | inactive | inactive | inactive | inactive | inactive | inactive | inactive | inactive | inactive | inactive | inactive | inactive | inactive | inactive | – | – | – | – | IC50 [5]: > 600 µM; IC50 [10]: 13.4 µM
2 | Cc1cc(C)nc(N2C(=O)CSC2C23CC4CC(CC(C4)C2)C3)n1 (stereo unspecified) | inactive | inactive | inactive | inactive | inactive | inactive | inactive | inactive | inactive | inactive | inactive | inactive | inactive | inactive | inactive | inactive | 0.67 µM | ≥ 58 µM | 182 | 122 µM | –
3 | O=C1CSC(c2c(F)cccc2F)N1CCC12CC3CC(CC(C3)C1)C2 (stereo unspecified) | inactive | inactive | inactive | inactive | inactive | inactive | inactive | inactive | inactive | inactive | inactive | inactive | inactive | inactive | inactive | inactive | 2 µM | ≥ 4 µM | 4 | 7.9 µM | IC50 [5]: ≥ 600 µM; IC50 [10]: 31.7 µM
4 | Cc1ccnc(N2C(=O)CSC2C23CC4CC(CC(C4)C2)C3)n1 (stereo unspecified) | inactive | inactive | inactive | inactive | inactive | inactive | inactive | inactive | inactive | inactive | inactive | inactive | inactive | inactive | inactive | inactive | 4.5 µM | > 60.7 µM | 30 | 136 µM | –
5 | CN(C)CCN1C(=O)CSC1CC12CC3CC(CC(C3)C1)C2 (stereo unspecified) | inactive | inactive | inactive | inactive | inactive | inactive | inactive | inactive | inactive | inactive | inactive | inactive | inactive | inactive | inactive | inactive | 53 µM | ≥ 62 µM | < 1.4 | 77 µM | –
6 | O=C1CSC(c2c(Cl)cccc2Cl)N1CCC12CC3CC(CC(C3)C1)C2 (stereo unspecified) | inactive | inactive | inactive | inactive | inactive | inactive | inactive | inactive | inactive | inactive | inactive | inactive | inactive | inactive | inactive | inactive | 3.4 µM | ≥ 9.7 µM | 5.5 | 19 µM | IC50 [5]: > 600 µM; IC50 [10]: 226 µM
7 | O=C1CSC(c2c(F)cccc2F)N1CC12CC3CC(CC(C3)C1)C2 (stereo unspecified) | inactive | inactive | inactive | inactive | inactive | inactive | inactive | inactive | inactive | inactive | inactive | inactive | inactive | inactive | inactive | inactive | 11 µM | 35.7 µM | > 25 | > 275 µM | IC50 [5]: > 600 µM; IC50 [10]: 495 µM
8 | O=C1CSC(c2c(F)cccc2Cl)N1CCC12CC3CC(CC(C3)C1)C2 (stereo unspecified) | inactive | inactive | inactive | inactive | inactive | inactive | inactive | inactive | inactive | inactive | inactive | inactive | inactive | inactive | inactive | inactive | 3.8 µM | ≥ 10.1 µM | 4.7 | 18.5 µM | –
9 | Cc1ccnc(N2C(=O)CSC2CC23CC4CC(CC(C4)C2)C3)c1 (stereo unspecified) | inactive | inactive | inactive | inactive | inactive | inactive | inactive | inactive | inactive | inactive | inactive | inactive | inactive | inactive | inactive | inactive | 18.1 µM | 21.9 µM | 1.6 | 29.3 µM | –
10 | O=C1CSC(c2c(Cl)cccc2Cl)N1CC12CC3CC(CC(C3)C1)C2 (stereo unspecified) | inactive | inactive | inactive | inactive | inactive | inactive | inactive | inactive | inactive | inactive | inactive | inactive | inactive | inactive | inactive | inactive | 1 µM | ≥ 10.1 µM | 21 | 21.1 µM | IC50 [5]: ≥ 600 µM; IC50 [10]: 42.9 µM
